Data from patent US20220281821A1, “INDAZOLE COMPOUNDS AND THEIR PHARMACEUTICAL COMPOSITIONS” (Jinan University, priority 2019, published 2022).

What was measured:
[1] = Rat hepatocyte stability experiment; type: in vitro ADME; conditions: for Residual percentage (%) 0 min / Residual percentage (%) 5 min / Residual percentage (%) 15 min / Residual percentage (%) 30 min / Residual percentage (%) 60 min / Residual percentage (%) 120 min: rat hepatocytes, average value; for half-life at 1 μM: rat, rat hepatocytes (suspension)
Procedure: In William medium E, dilute the 37° C. rat hepatocyte suspension to an appropriate density (viable cell density=2×10^6 cells/mL). In addition, a 2× quantification solution (the concentration of the test compound was 2 μM) was additionally prepared in William's medium E. The hepatocyte solution and 2× quantification solution were preheated in a water bath of 37° C. 40 µL of the preheated hepatocyte solution (2×10^6 cells/mL) was added into the designated wells for 5, 15, 30, 60, and 120 min, and add 40 µL of the preheated 2× quantification solution and start timing. An assay plate was placed in a 37° C., 5% CO2 incubator with shaking at 110 rpm. At 5, 15, 30, 60, and 120 minutes, 240 μL of ACN containing IS was added to each well. The plate was then sealed and stored in a −35° C. freezer. After collecting at all time points, the plate was shaken for 2 minutes and then centrifuging was performed for 15 minutes at 6000 rmp. 100 μL of supernatant from each well was transferred to a 96-well sample plate containing 100 μL of water for LC/MS analysis, determination of compound concentrations, calculation of rate constants and half-lives.

[2] = Pharmacokinetic evaluation in SD rats; type: in vivo
Procedure: Pharmacokinetics and oral bioavailability were tested in SD rats. According to the solubility of the drug, a single dose was administered orally, intravenously or by intraperitoneal injection. Animal blood samples were collected at different time points (0, 0.5, 1, 2, 4, 6, 8, and 24 hours), anticoagulated with heparin, and centrifuged to take the supernatant. Blood samples were analyzed by HPLC-MS. DAS2.1 was used for data analysis to detect half-life (T1/2), maximum blood concentration (Cmax), time to peak (Tmax), area under the drug-time curve (AUC), and bioavailability (BA) and other pharmacokinetic data.

TRKs (TRK1, TRK2, TRK3) = experiment: Kinase activity on TRKs, summary statements; type: biochemical; conditions: summary statement
Text: Kinase activity assay: Z′-LYTE™ technology (detection by fluorescence, enzyme-conjugated format, based on the difference in sensitivity of phosphorylated and non-phosphorylated peptides to proteolytic cleavage) was applied, and using the principle of fluorescence resonance energy transfer (FRET), a Z′-LYTE™ FRET peptide substrate (Z′-LYTE™ Tyrosine 1 Peptide Substrate, Invitrogen, PV3190), and a secondary reaction were used to detect the inhibitory activity of the compounds on TRKs (TRK1, TRK2, TRK3) (life technologies, PV3144, PV3616, PV3617).
Enzymatic reaction: In a 384-well plate, 5 μL of an enzyme-substrate system (50 mM HEPES pH 7.5, 0.01% BRIJ-35, 10 mM MgCl2, 1 mM EGTA, 2 μM Tyr 01 Peptide Substrate) was added and 5 nL of compound (concentration gradient) was transferred thereto by using the echo520 ultramicro liquid pipetting system. After shaking for 10-20 min at room temperature, 200 nL, 12.5 nL and 25 nL of ATP (final concentrations are 400 uM, 25 uM and 50 uM, respectively) were transferred by using the echo520 ultramicro liquid pipetting system. After shaking and mixing, centrifuging was performed. A reaction was carried out at 30° C. in the dark for 1.5 hours.
Assay reaction: 2.54 of Development Solution (1:128 dilution) was added in each well, and incubated at 37° C. in the dark for 1 hour, and then 5 μL of Stop Reagent was added.
Plate reading: fluorescence signals were detected using a Perkin Elmer EnVision Multimode Plate Reader (excitation at 400 nm, and emission at 460 nm, and 535 nm).
Calculation: the inhibition rate of each well was calculated by the fully active well and control signal wells. The data were analyzed as follows:
Phosphorylation ratio=1−{(emission ratio×F100%−C100%)/[C0%−C100%+emission ratio×(F100%−F0%)]}×100;
Inhibition rate=100×(1−compound phosphorylation ratio/negative control phosphorylation ratio).
IC50 values were calculated by using GraphPad Prism 5.0 software.

BaF3-ETV6-NTRK3 = target: T1, BaF3-ETV6-NTRK3 (Homo sapiens, UniProt Q16288); experiment: Cell proliferation inhibition (CCK-8), BaF3-ETV6-NTRK3 stable strain; type: cell-based, mouse; conditions: BaF3-ETV6-NTRK3, 72 hours
T1 construct: fused on or other part: P41212 (Transcription factor ETV6)
T1 sequence (Q16288 whole entry, the tested form may be a part): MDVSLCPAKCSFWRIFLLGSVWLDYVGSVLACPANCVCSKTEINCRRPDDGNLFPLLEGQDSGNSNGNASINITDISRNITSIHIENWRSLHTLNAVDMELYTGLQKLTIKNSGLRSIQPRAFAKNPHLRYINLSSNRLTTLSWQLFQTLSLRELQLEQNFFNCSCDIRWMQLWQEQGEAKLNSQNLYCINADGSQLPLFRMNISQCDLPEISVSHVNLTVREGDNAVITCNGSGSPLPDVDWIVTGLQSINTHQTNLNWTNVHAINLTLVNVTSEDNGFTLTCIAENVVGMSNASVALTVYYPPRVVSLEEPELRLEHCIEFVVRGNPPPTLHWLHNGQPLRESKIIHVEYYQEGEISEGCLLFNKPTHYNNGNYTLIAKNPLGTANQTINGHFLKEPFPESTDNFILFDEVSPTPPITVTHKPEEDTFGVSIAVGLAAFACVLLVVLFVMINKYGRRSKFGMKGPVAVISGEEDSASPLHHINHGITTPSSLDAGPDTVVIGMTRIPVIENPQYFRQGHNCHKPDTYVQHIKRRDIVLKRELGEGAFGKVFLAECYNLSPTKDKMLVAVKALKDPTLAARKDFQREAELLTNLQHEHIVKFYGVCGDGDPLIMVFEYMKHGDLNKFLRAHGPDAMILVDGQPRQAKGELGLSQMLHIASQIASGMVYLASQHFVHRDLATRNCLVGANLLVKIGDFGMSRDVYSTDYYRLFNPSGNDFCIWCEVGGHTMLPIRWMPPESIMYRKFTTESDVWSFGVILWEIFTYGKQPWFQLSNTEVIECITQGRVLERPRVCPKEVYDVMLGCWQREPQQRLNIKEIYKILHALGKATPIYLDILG
Outline: (§1)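 Ba/F3 cells stably electroporated with ETV6-NTRK3, CD74-NTRK1 or ETV6-NTRK2, selected with G418 and grown without IL3, then cloned by limiting dilution.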

BaF3-CD74-NTRK1 = target: T2, BaF3-CD74-NTRK1 (Homo sapiens, UniProt P04629); experiment: Cell proliferation inhibition (CCK-8), BaF3-CD74-NTRK1 stable strain; type: cell-based, mouse; conditions: BaF3-CD74-NTRK1, 72 hours
T2 construct: fused on or other part: P04233 (HLA class II histocompatibility antigen gamma chain)
T2 sequence (P04629 510-796 limits assumed): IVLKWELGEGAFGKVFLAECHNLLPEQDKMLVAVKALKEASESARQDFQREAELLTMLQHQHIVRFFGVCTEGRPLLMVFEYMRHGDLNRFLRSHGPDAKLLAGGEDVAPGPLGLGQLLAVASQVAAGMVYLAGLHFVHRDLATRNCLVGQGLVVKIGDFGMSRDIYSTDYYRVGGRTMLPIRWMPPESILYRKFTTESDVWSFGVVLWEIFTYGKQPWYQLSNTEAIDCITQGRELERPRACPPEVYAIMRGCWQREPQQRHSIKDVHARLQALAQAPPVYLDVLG
Outline: as §1

BaF3-ETV6-NTRK2 = target: T3, BaF3-ETV6-NTRK2 (Homo sapiens, UniProt Q16620); experiment: Cell proliferation inhibition (CCK-8), BaF3-ETV6-NTRK2 stable strain; type: cell-based, mouse; conditions: BaF3-ETV6-NTRK2, 72 hours
T3 construct: fused on or other part: P41212 (Transcription factor ETV6)
T3 sequence (Q16620 538-822 limits assumed): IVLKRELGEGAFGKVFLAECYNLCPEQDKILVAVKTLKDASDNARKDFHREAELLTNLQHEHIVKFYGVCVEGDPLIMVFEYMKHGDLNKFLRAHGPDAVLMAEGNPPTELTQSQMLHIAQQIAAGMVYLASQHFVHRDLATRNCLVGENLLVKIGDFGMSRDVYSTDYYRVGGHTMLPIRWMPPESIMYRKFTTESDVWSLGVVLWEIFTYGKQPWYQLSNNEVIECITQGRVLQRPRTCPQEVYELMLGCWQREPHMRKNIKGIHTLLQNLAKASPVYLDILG
Outline: as §1

Ba/F3-TRK stable strains = experiment: Cell proliferation of Ba/F3-TRK stable strains, summary statements; type: cell-based, mouse; conditions: summary statement
Procedure: The brief steps of stable strain construction are as follows: construct a pCDNA3.1(+) plasmid vector carrying genes such as CD74-NTRK1, ETV6-NTRK2 and ETV6-NTRK3; the plasmid was electroporated into Ba/F3 cells using the Amaxa® Cell Line Nucleofector® Kit V; 48 hours after electroporated, G418 with a final concentration of 1000 μg/ml was added for screening for two weeks, and then IL3 was removed, and continued screening to obtain polyclonal stable strains; then single clones were selected by a limiting dilution method. The stable strains were then identified using positive drugs, WB and gene sequencing; and the monoclonal clones that were identified as completely correct may be used for the study of cell proliferation inhibitory activity of inhibitors.
Cell proliferation inhibition activity study: the cells in the logarithmic growth phase were seeded into 96-well plates at 8000-12000 cells/well, and inhibitors at different concentrations (0-10 μM) were added the next day, and incubation was continued for 72 hours; then 10 μL of CCK-8 reagent was added to each well, and the incubation was continued for 1-3 hours; and then use a super microplate reader to measure their absorbance values at 450 nm and 650 nm. The half-inhibition concentration (IC50) was calculated using GraphPad Prism 8.0.0.

SMILES | Residual percentage (%) 0 min [1] | Residual percentage (%) 5 min [1] | Residual percentage (%) 15 min [1] | Residual percentage (%) 30 min [1] | Residual percentage (%) 60 min [1] | Residual percentage (%) 120 min [1] | half-life at 1 μM [1] | inhibitory activity against TRKs kinase (in words) (TRKs (TRK1, TRK2, TRK3)) | other results
C[C@@H](Nc1ccc2[nH]nc(/C=C/c3ccccn3)c2c1)c1cc(F)cc(F)c1 [DYX-244-1, (R,E)-N-(1-(3,5-difluorophenyl)ethyl)-3-(2-(pyridin-2-yl)vinyl)-1H-indazol-5-amine] | 100.00% | 71.83% | 48.63% | 14.84% | 8.20% | 5.40% | 11.1 min | strong inhibitory activity | Area under the drug-time curve (0-t) ([2]; intravenous injection, 2 mg/kg): 3.68 µM·h; Area under the drug-time curve (0-∞) ([2]; intravenous injection, 2 mg/kg): 3.69 µM·h; Half-life ([2]; intravenous injection, 2 mg/kg): 83.4 min; Maximum blood concentration ([2]; intravenous injection, 2 mg/kg): 6.77 µM; Removal rate ([2]; intravenous injection, 2 mg/kg): 24 mL/min/kg; Time to Peak ([2]; intravenous injection, 2 mg/kg): 0.08 h; Bioavailability (%) ([2]; oral 10 mg/kg vs intravenous 2 mg/kg): 8.79%; Area under the drug-time curve (0-t) ([2]; oral administration, 10 mg/kg): 1.62 µM·h; Area under the drug-time curve (0-∞) ([2]; oral administration, 10 mg/kg): 1.64 µM·h; Half-life ([2]; oral administration, 10 mg/kg): 67.8 min; Maximum blood concentration ([2]; oral administration, 10 mg/kg): 0.36 µM; Time to Peak ([2]; oral administration, 10 mg/kg): 2.00 h
C[C@@H](Nc1cnc2[nH]nc(/C=C/c3ccccn3)c2c1)c1cc(F)cc(F)c1 [DYX-318, (R,E)-N-(1-(3,5-difluorophenyl)ethyl)-3-(2-(pyridin-2-yl)vinyl)-1H-pyrazolo[3,4-b]pyridin-5-amine] | 100.00% | 27.83% | 12.24% | 1.36% | 0.27% | 0.20% | 2.71 min | strong inhibitory activity | IC50 (BaF3-ETV6-NTRK3): 9.1 nM; IC50 (BaF3-CD74-NTRK1): 9.6 nM; IC50 (BaF3-ETV6-NTRK2): 33.6 nM; inhibitory activity against cell proliferation of the Ba/F3-TRK stable strains (in words) (Ba/F3-TRK stable strains): strong inhibitory activity
